Source: US7910622B2, “Modulation of bacterial quorum sensing with synthetic ligands” (Wisconsin Alumni Research Foundation, priority 2007, dated 2011)
Where “and” joins values, the source holds several entries; their conditions need not be identical. Equal entries are not always repeated. Where two headings read alike, the source gives them in different places. Marks after values point to notes of the source that are not given here.

Columns and labels:
Assay in all cases: cell-based
TraR = molecular target: T1, TraR (Agrobacterium tumefaciens, UniProt P33905); conditions: for A. tumefaciens-TraR Activation [%]: 10 μM ligand; for A. tumefaciens-TraR Activation [%] / A. tumefaciens-TraR Inhibition [%] / inhibition at 10 µM: A. tumefaciens WCF47 (pCF372), normalized to OOHL; for A. tumefaciens-TraR Inhibition [%]: 10 μM synthetic ligand against 100 nM OOHL; for activation at 10 µM: read-out: A. tumefaciens-TraR Activation [%]; for inhibition at 10 µM: read-out: A. tumefaciens-TraR Inhibition [%], 10 μM synthetic ligand against 100 nM OOHL
T1 construct: These strains lack their AHL synthase (I) genes, but retain their native R genes; endogenous in cells; host or cells: A. tumefaciens WCF47 (Δ-traI) with PtraI-lacZ plasmid pCF372
Description: A. tumefaciens reporter gene assay protocols. […] An overnight culture of A. tumefaciens WCF47 (pCF372) was diluted to an OD600 of 0.1 in fresh AB minimal medium containing 400 μg/mL octopine and 50 μg/mL streptomycin. A 200 μL-portion of the diluted culture was added to each well of the multititer plate containing AHLs. Plates were grown at 28° C. for 18-20 h in a rotary shaking incubator (200 rpm). The cultures were then assayed for β-galactosidase activity following the Miller assay method. Briefly, 200 μL aliquots of bacteria from each of the wells were added to wells of a polystyrene 96-well plate and the OD600 of each well was recorded. Next, 50 μL aliquots from each well were transferred to a solvent resistant 96-well plate containing 200 μL Z buffer, 8 μL CHCl3 and 4 μL 0.1% aq. sodium dodecylsulfate (SDS). This suspension was mixed via repetitive pipetting, after which the CHCl3 was allowed to settle. A 100-μL aliquot from each well was transferred to a fresh polystyrene 96-well plate, and 20 μL of substrate, o-nitrophenyl-β-D-galactopyranoside (ONPG, 4 μg/mL in phosphate buffer), was added at time zero. After the development of appropriate yellow color (ca. 15-35 min), the reaction was terminated by the addition of 50 μL of 1 M Na2CO3. Absorbance at 420 nm and 550 nm was measured for each well using a plate reader, and Miller units were calculated according to standard methods.
(§1) Dose response reporter gene assays. […] IC50 and EC50 values were calculated using GraphPad Prism software (v. 4.0) using a sigmoidal curve fit.
A. tumefaciens reporter gene assay protocols. […] An overnight culture of A. tumefaciens WCF47 (pCF372) was diluted 1:10 with fresh AB minimal medium containing 400 μg/mL octopine and 50 μg/mL streptomycin. A 200 μL portion of the diluted culture was added to each well of the multititer plate containing AHLs. Plates were incubated at 28° C. for 18-24 h. The cultures were then assayed for β-galactosidase activity following the Miller assay method. Briefly, 200 μL aliquots of bacteria from each of the wells were added to wells of a 96-well multititer plate, and the OD600 of each well was recorded. Next, 50 μL aliquots from each well were transferred to a solvent resistant 96-well multititer plate containing 200 μL Z buffer, 8 μL CHCl3 and 4 μL 0.1% aq. SDS. This suspension was mixed via repetitive pipetting, after which the CHCl3 was allowed to settle. A 100 μL aliquot from each well was transferred to a fresh 96-well multititer plate, and 20 μL of substrate, o-nitrophenyl-β-D-galactopyranoside (ONPG, 4 μg/mL in phosphate buffer), was added at time zero. After the development of appropriate yellow color (ca. 20-30 min), the reaction was terminated by the addition of 50 μL of 1 M Na2CO3. Absorbances at 420 nm and 550 nm were measured for each well using a plate reader, and Miller units were calculated according to standard methods.
as §1

LasR [1] = molecular target: T2, LasR (Pseudomonas aeruginosa, UniProt P25084); assay type: cell-based; conditions: for E. coli-LasR Inhibition [%]: 5 μM synthetic ligand against 7.5 nM OdDHL; for E. coli-LasR Inhibition [%] / inhibition at 5 µM: E. coli DH5α (pJN105L pSC11), normalized to OdDHL; for inhibition at 5 µM: read-out: E. coli-LasR Inhibition [%], 5 μM synthetic ligand against 7.5 nM OdDHL
T2 construct: expressed in transfected cells; host or cells: E. coli DH5α (pJN105L pSC11), arabinose-induced
Description: (§2) E. coli LasR reporter gene assay protocols. […] An overnight culture of E. coli DH5a (pJN105L pSC11) grown at 37° C. was subculture by diluting 1/10 in fresh LB medium containing 100 μg/mL ampicillin and 15 μg/mL gentamicin and shaking at 37° C. until OD600=0.3. Arabinose (4 mg/mL) was then added to induce the LasR promoter and a 200 μL-portion of this culture was added to each well of the multititer plate containing AHLs. Plates were grown at 37° C. for 2 hours in a rotary shaking incubator (200 rpm; OD600=0.45). The cultures were then assayed for activity following the identical β-galactosidase assay protocols used in the A. tumefaciens reporter gene assays.
as §1
(§3) E. coli LasR reporter gene assay protocols. […] An overnight culture of E. coli DH5α (pJN105L pSC11) was diluted 1:10 with fresh LB medium containing 100 μg/mL ampicillin and 15 μg/mL gentamicin. This sub-culture was incubated at 37° C. until OD600=0.3 (4-6 h). Arabinose (4 mg/mL) was then added to induce the LasR promoter, and a 200 μL portion of this culture was added to each well of the multititer plate containing AHLs. Plates were incubated at 37° C. until OD600=0.45 (4-6 h). The cultures were then assayed for LasR activity following the identical β-galactosidase assay protocols used in the A. tumefaciens reporter gene assays (see above).
as §1

LasR [2] = molecular target: T2, LasR; conditions: for E. coli-LasR Activation [%]: 5 μM ligand; for E. coli-LasR Activation [%] / activation at 5 µM: E. coli DH5α (pJN105L pSC11), normalized to OdDHL; for activation at 5 µM: read-out: E. coli-LasR Activation [%], 5 μM ligand
Description: as §2, §1, §3, §1

LuxR [3] = molecular target: T3, LuxR (Aliivibrio fischeri, UniProt P35327); assay type: cell-based, Vibrio fischeri; conditions: for V. fischeri-LuxR Inhibition [%]: 5 μM synthetic ligand against 5 μM OHHL; for V. fischeri-LuxR Inhibition [%] / inhibition at 5 µM: V. fischeri ES114 (Δ-luxI), normalized to OHHL; for IC50: LuxR IC50, determined against 5 μM OHHL; for inhibition at 5 µM: read-out: V. fischeri-LuxR Inhibition [%], 5 μM synthetic ligand against 5 μM OHHL
T3 construct: a Δ-luxI derivative of V. fischeri ES114, in which the native lux operon behaves as the bioluminescent reporter; endogenous in cells; host or cells: V. fischeri ES114 (Δ-luxI)
Description: (§4) Luminescence assays. For agonism assays, an appropriate amount of AHL stock solution was added into a 96-well plate. An overnight culture of E. coli or V. fischeri was diluted 1:10 with appropriate media (LB plus 10 μg/mL tetracycline for E. coli; LBS for V. fischeri). A 200-μL portion of the diluted culture was added to each well of the plate. Plates were grown for 4-8 h with shaking (200 rpm; 30° C. for E. coli and RT for V. fischeri). Luminescence was measured using a multilabel plate reader and normalized to cell density. […] All assays were performed in triplicate. Graphpad Prism software was used to calculate IC50 and EC50 values.
(§5) Vibrio fischeri assay procedures. […] An overnight culture of V. fischeri ES114 (WT, Δ-luxI or Δ-luxR) was diluted 1:10 with LBS medium. A-200 μL portion of the diluted culture was added to each well of the plate. Plates were grown at RT with shaking (200 rpm) until the OD600=0.35-0.4 (4-6 h). Luminescence then was measured and normalized to cell density per well. […] All assays were performed in triplicate. IC50 and EC50 values were calculated using GraphPad Prism software using a sigmoidal curve fit.
(§6) V. fischeri reporter gene assay protocols. […] An overnight culture of V. fischeri ES114 (D-luxI) was diluted 1:10 with LBS medium. A 200-μL portion of the diluted culture was added to each well of the multititer plate. Plates were grown at RT with shaking (200 rpm) until the OD600=0.35-0.4 (4-6 h). Luminescence then was measured and normalized to cell density per well.
as §1
as §6, with “(Δ-luxI)” for “(D-luxI)”, “A200 μL” for “A 200-μL”, “incubated” for “grown”, “RT” for “RT with shaking (200 rpm)”
as §1

LuxR [4] = molecular target: T3, LuxR; design: species or system Vibrio fischeri; conditions: for V. fischeri-LuxR Activation [%]: 200 μM ligand; for V. fischeri-LuxR Activation [%] / activation at 200 µM: V. fischeri ES114 (Δ-luxI), normalized to OHHL; for activation at 200 µM: read-out: V. fischeri-LuxR Activation [%], 200 μM ligand
Description: as §4, §5, §6, §1
as §6, with “(Δ-luxI)” for “(D-luxI)”, “A200 μL” for “A 200-μL”, “incubated” for “grown”, “RT” for “RT with shaking (200 rpm)”
as §1

T3 sequence (P35327 whole entry): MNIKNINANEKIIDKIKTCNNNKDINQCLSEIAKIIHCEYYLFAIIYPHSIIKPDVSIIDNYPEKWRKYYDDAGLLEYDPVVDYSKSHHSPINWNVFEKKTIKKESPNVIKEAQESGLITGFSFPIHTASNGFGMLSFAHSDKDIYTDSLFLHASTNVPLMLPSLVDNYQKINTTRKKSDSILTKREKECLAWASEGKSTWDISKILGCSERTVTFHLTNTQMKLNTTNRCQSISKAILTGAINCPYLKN
T1 sequence (P33905 whole entry): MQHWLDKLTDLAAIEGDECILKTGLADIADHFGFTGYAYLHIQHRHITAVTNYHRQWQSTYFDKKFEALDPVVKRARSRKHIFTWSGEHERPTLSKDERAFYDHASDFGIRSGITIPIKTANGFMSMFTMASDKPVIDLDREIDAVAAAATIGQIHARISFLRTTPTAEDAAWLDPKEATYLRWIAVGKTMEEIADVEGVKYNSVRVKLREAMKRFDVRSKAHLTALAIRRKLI
T2 sequence (P25084 whole entry): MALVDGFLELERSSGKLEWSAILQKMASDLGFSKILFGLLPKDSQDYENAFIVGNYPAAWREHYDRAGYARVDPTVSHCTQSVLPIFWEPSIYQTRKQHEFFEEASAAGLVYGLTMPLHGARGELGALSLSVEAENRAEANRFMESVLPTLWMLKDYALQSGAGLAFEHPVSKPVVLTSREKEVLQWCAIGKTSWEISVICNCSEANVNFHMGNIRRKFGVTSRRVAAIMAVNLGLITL

Row | Compound | A. tumefaciens-TraR Activation [%] (TraR) | A. tumefaciens-TraR Inhibition [%] (TraR) | E. coli-LasR Inhibition [%] (LasR [1]) | E. coli-LasR Activation [%] (LasR [2]) | V. fischeri-LuxR Inhibition [%] (LuxR [3]) | V. fischeri-LuxR Activation [%] (LuxR [4]) | also measured
1 | 4-methyl PHL [B24] | 3 | 21 | 11 | 0 | 58 | 1 | –
2 | 4-methyl PHL [C19] | – | – | – | – | – | – | Activation (%) (TraR; A. tumefaciens-TraR, Library C primary agonism screen): 3%; Inhibition (%) (TraR; A. tumefaciens-TraR, Library C primary antagonism screen): 21%; Inhibition (%) (LasR [1]; E. coli-LasR, Library C primary antagonism screen): 11%; Activation (%) (LasR [2]; E. coli-LasR, Library C primary agonism screen): 0%; Inhibition (%) (LuxR [3]; V. fischeri-LuxR, Library C primary antagonism screen): 58%; Activation (%) (LuxR [4]; V. fischeri-LuxR, Library C primary agonism screen): 1%
3 | CCCCCCCC(=O)N[C@H]1CCOC1=O [A3, C8 AHL] | – | – | 43 | – | – | – | IC50 (TraR; determined against 100 nM OOHL, read-out: TraR IC50): 770 nM; activation at 10 µM (TraR): 7%; inhibition at 10 µM (TraR): 83%; IC50 (LasR [1]; determined against 7.5 nM OdDHL, read-out: LasR IC50): 1750 nM; inhibition at 5 µM (LasR [1]): ≥ 50%; activation at 5 µM (LasR [2]): 1%; IC50 (LuxR [3]): 770 nM; inhibition at 5 µM (LuxR [3]): 86%; activation at 200 µM (LuxR [4]): 12%
4 | CCCCCCCCCC(=O)NC1CCOC1=O (stereo not shown) [A4, C10 AHL] | – | – | – | – | – | – | IC50 (TraR): 1050 nM; activation at 10 µM (TraR): 2%; inhibition at 10 µM (TraR): 92%; IC50 (LasR [1]): 250 nM; LasR: concentration at which the compound elicits its maximal inhibition (value in parentheses) (LasR [1]; against 7.5 nM OdDHL, dose response curve did not reach 100% inhibition): (2.0)^f μM; inhibition at 5 µM (LasR [1]): 34%; EC50 (LasR [2]): > 200000 nM; activation at 5 µM (LasR [2]): ≤ 44%; IC50 (LuxR [3]): 900 nM and 400 nM; inhibition at 5 µM (LuxR [3]): 96%; activation at 200 µM (LuxR [4]): 1%
5 | CCCCCCCCCCCC(=O)N[C@H]1CCOC1=O [A5, C12 AHL] | – | – | – | – | – | – | activation at 10 µM (TraR): 1%; inhibition at 10 µM (TraR): 22%; inhibition at 5 µM (LasR [1]): -10%; activation at 5 µM (LasR [2]): ~85%; EC50 (LasR [2]; read-out: LasR EC50): 40 nM; inhibition at 5 µM (LuxR [3]): 73%; activation at 200 µM (LuxR [4]): 2%
6 | CCCCCCCCCCCCCCCC(=O)N[C@H]1CCOC1=O [A6] | 0 | 0 | 5 | 11 | 27 | 2 | –
7 | CCCCCCCCCCCS(=O)(=O)N[C@H]1CCOC1=O [A16] | 0 | 29 | 21 | 0 | 74 | 1 | –
8 | O=C(/C=C/c1ccccc1)N[C@H]1CCOC1=O [A19] | 3 | 7 | 22 | 2 | 48 | 3 | –
9 | CCOC(=O)/C=C/C(=O)N[C@H]1CCOC1=O [A20] | 0 | 3 | 13 | 0 | 37 | 1 | –
10 | CC(C)(C)OC(=O)NCc1ccc(C(=O)N[C@H]2CCOC2=O)cc1 [A21] | 0 | 13 | 12 | 0 | 35 | 1 | –
11 | CC(C)(C)OC(=O)NCCCCC(=O)N[C@H]1CCOC1=O [A22] | 0 | 10 | 15 | 3 | 47 | 2 | –
12 | C=CCCC(=O)N[C@H]1CCOC1=O [A23] | 0 | 5 | 12 | 0 | 18 | 2 | –
13 | O=C(CCCc1c[nH]c2ccccc12)N[C@@H]1CCOC1=O [A29] | 0 | 9 | 13 | 0 | 29 | 2 | –
